Experimental data from patent US20140249135A1, “PIM KINASE INHIBITORS AND METHODS OF THEIR USE” (NOVARTIS AG, priority 2007, published 2014).

Tests used:
Assay type in all cases: biochemical
Pim2 kinase = Pim2 kinase (Homo sapiens, UniProt Q9P1W9); assay: Pim2 ATP depletion assay; conditions: read-out: PIM2 IC50;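 further: Luciferase-based luminescent readout of ATP remaining after PIM2 phosphorylates a BAD peptide, final 5 nM enzyme, 4 µM ATP, 10 µM peptide, 2.5% DMSO, run to roughly half ATP consumption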
Pim3 kinase = Pim3 kinase (Homo sapiens, UniProt Q86V86); assay: Pim3 ATP depletion assay; conditions: read-out: PIM3 IC50
Pim1 kinase = Pim1 kinase (Homo sapiens, UniProt P11309); assay: Pim1 ATP depletion assay; conditions: Pim1 ATP depletion assay; read-out: PIM1 IC50;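 further: Luciferase-luciferin luminescence readout of residual ATP after PIM1 transfers phosphate to a peptide substrate, 40 µM ATP added, reaction run to roughly half ATP consumption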
Pim1 kinase, sequence (P11309 whole entry): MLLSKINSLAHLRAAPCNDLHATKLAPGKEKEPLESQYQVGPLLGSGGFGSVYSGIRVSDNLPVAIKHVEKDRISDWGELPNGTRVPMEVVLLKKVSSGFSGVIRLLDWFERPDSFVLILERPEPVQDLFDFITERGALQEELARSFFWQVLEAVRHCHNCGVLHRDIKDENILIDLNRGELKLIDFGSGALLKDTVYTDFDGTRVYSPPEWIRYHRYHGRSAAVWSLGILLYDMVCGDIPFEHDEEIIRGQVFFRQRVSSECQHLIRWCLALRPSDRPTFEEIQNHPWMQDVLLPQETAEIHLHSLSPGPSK

Pim2 kinase, sequence (Q9P1W9 whole entry): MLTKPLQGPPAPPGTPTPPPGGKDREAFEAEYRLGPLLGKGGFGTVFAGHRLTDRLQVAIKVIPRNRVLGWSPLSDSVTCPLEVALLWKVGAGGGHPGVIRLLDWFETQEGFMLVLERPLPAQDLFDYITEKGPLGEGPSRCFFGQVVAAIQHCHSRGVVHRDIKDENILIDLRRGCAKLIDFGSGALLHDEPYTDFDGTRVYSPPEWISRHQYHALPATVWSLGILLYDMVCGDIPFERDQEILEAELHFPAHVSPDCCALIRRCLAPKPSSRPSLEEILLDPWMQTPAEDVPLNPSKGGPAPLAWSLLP

| IC50 (Pim2 kinase) | IC50 (Pim3 kinase) | IC50 (Pim1 kinase) | Structure (SMILES) |
| --- | --- | --- | --- |
| < 1000 nM | < 1000 nM | < 1000 nM | CC(C)/C=C\c1ccc(F)c(-c2ccc(N)c(C(=O)Nc3cnccc3N3CCC[C@H](N)C3)n2)c1 [Example 687, 3-Amino-6-[2-fluoro-5-(3-methyl-but-1-enyl)-phenyl]-pyridine-2-carboxylic acid (3-amino-3,4,5,6-tetrahydro-2H-[1,4′]bipyridinyl-3′-yl)-amide] |
| < 1000 nM | < 1000 nM | < 1000 nM | NC(=O)c1ccc(-c2ccc(N)c(C(=O)Nc3cnccc3N3CCC[C@H](N)C3)n2)nc1 [Example 691, 5′-Amino[2,2′]bipyridinyl-5,6′-dicarboxylic acid 5-amide 6′-[(3-amino-3,4,5,6-tetrahydro-2H-[1,4′]bipyridinyl-3′-yl)-amide]] |
| < 1000 nM | < 1000 nM | < 1000 nM | COc1ccc(-c2ccc(N)c(C(=O)Nc3cnccc3N3CCC[C@H](N)C3)n2)nc1 [Example 696, 5-Amino-5′-methoxy-[2,2′]bi-pyridinyl-6-carboxylic acid (3-amino-3,4,5,6-tetrahydro-2H-[1,4′]bipyridinyl-3′-yl)-amide] |
| < 1000 nM | < 1000 nM | < 1000 nM | CSc1ccc(-c2ccc(N)c(C(=O)Nc3cnccc3N3CCC[C@H](N)C3)n2)nc1 [Example 699, 5-Amino-5′-methylsulfanyl-[2,2′]bipyridinyl-6-carboxylic acid (3-amino-3,4,5,6-tetra-hydro-2H-[1,4′]bipyridinyl-3′-yl)-amide] |
| < 1000 nM | < 1000 nM | < 1000 nM | Nc1ccc(-c2ncc(Cl)cc2Cl)nc1C(=O)Nc1cnccc1N1CCC[C@H](N)C1 [Example 700, 5-Amino-3′,5′-dichloro-[2,2′]bi-pyridinyl-6-carboxylic acid (3-amino-3,4,5,6-tetrahydro-2H-[1,4′]bipyridinyl-3′-yl)-amide] |
| < 1000 nM | < 1000 nM | < 1000 nM | Nc1ccc(-c2cccc(-n3cccn3)n2)nc1C(=O)Nc1cnccc1N1CCC[C@H](N)C1 [Example 703, 5-Amino-6′-pyrazol-1-yl-[2,2′]bipyridinyl-6-carboxylic acid (3-amino-3,4,5,6-tetra-hydro-2H-[1,4′]bipyridinyl-3′-yl)-amide] |
| < 1000 nM | < 1000 nM | < 1000 nM | Cc1ccnc(-c2ccc(N)c(C(=O)Nc3cnccc3N3CCC[C@H](N)C3)n2)c1F [Example 707, 5-Amino-3′-fluoro-4′-methyl-[2,2′]bipyridinyl-6-carboxylic acid (3-amino-3,4,5,6-tetra-hydro-2H-[1,4′]bipyridinyl-3′-yl)-amide] |
| < 1000 nM | < 1000 nM | < 1000 nM | Cc1nc(-c2ccc(N)c(C(=O)Nc3cnccc3N3CCC[C@H](N)C3)n2)ccc1F [Example 708, 5-Amino-5′-fluoro-6′-methyl-[2,2′]bipyridinyl-6-carboxylic acid (3-amino-3,4,5,6-tetra-hydro-2H-[1,4′]bipyridinyl-3′-yl)-amide] |
| < 1000 nM | < 1000 nM | < 1000 nM | Nc1ccc(-c2cccc(Cl)n2)nc1C(=O)Nc1cnccc1N1CCC[C@H](N)C1 [Example 710, 5-Amino-6′-chloro-[2,2′]bi-pyridinyl-6-carboxylic acid (3-amino-3,4,5,6-tetrahydro-2H-[1,4′]bipyridinyl-3′-yl)-amide] |
| < 1000 nM | < 1000 nM | < 1000 nM | Nc1cccc(-c2ccc(N)c(C(=O)Nc3cnccc3N3CCC[C@H](N)C3)n2)n1 [Example 711, 5,6′-Diamino-[2,2′]bipyridinyl-6-carboxylic acid (3-amino-3,4,5,6-tetrahydro-2H-[1,4′]bi-pyridinyl-3′-yl)-amide] |

Second part, the molecule before the results:

| Structure (SMILES) | IC50 (Pim2 kinase) | IC50 (Pim3 kinase) | IC50 (Pim1 kinase) |
| --- | --- | --- | --- |
| Nc1ccc(-c2cncs2)nc1C(=O)Nc1cnccc1N1CCC[C@H](N)C1 [Example 688, 3-Amino-6-thiazol-5-yl-pyridine-2-carboxylic acid (3-amino-3,4,5,6-tetrahydro-2H-[1,4′]bipyridinyl-3′-yl)-amide] | < 1000 nM | < 1000 nM | < 1000 nM |
| CC(C)N(C)C(=O)c1ccc(F)c(-c2ccc(N)c(C(=O)Nc3cnccc3N3CCC[C@H](N)C3)n2)c1F [Example 689, 3-Amino-6-[2,6-difluoro-3-(isopropyl-methyl-carbamoyl)-phenyl]-pyridine-2-carboxylic acid (3-amino-3,4,5,6-tetra-hydro-2H-[1,4′]bipyridinyl-3′-yl)-amide] | < 1000 nM | < 1000 nM | < 1000 nM |
| Nc1ccc(-c2ncccc2F)nc1C(=O)Nc1cnccc1N1CCC[C@H](O)C1 [Example 690, 5-Amino-3′-fluoro-[2,2′]bi-pyridinyl-6-carboxylic acid (3-hydroxy-3,4,5,6-tetrahydro-2H-[1,4′]bipyridinyl-3′-yl)-amide] | < 1000 nM | < 1000 nM | < 1000 nM |
| Nc1ccc(-c2cncc3ccccc23)nc1C(=O)Nc1cnccc1N1CCC[C@H](N)C1 [Example 692, 3-Amino-6-isoquinolin-4-yl-pyridine-2-carboxylic acid (3-amino-3,4,5,6-tetrahydro-2H-[1,4′]bipyridinyl-3′-yl)-amide] | < 1000 nM | < 1000 nM | < 1000 nM |
| Nc1ccc(-c2cccc[n+]2[O-])nc1C(=O)Nc1cnccc1N1CCC[C@H](N)C1 [Example 693, 5-Amino-1′-oxy-[2,2′]bi-pyridinyl-6-carboxylic acid (3-amino-3,4,5,6-tetrahydro-2H-[1,4′]bipyridinyl-3′-yl)-amide] | < 1000 nM | < 1000 nM | < 1000 nM |
| COc1nccnc1-c1ccc(N)c(C(=O)Nc2cnccc2N2CCC[C@H](N)C2)n1 [Example 694, 3-Amino-6-(3-methoxy-pyrazin-2-yl)-pyridine-2-carboxylic acid (3-amino-3,4,5,6-tetrahydro-2H-[1,4′]bipyridinyl-3′-yl)-amide] | < 1000 nM | < 1000 nM | < 1000 nM |
| Nc1ccc(-c2cccc(OCc3ccccc3)n2)nc1C(=O)Nc1cnccc1N1CCC[C@H](N)C1 [Example 695, 5-Amino-6′-benzyloxy-[2,2′]bi-pyridinyl-6-carboxylic acid (3-amino-3,4,5,6-tetrahydro-2H-[1,4′]bipyridinyl-3′-yl)-amide] | < 1000 nM | < 1000 nM | < 1000 nM |
| COc1cccnc1-c1ccc(N)c(C(=O)Nc2cnccc2N2CCC[C@H](N)C2)n1 [Example 697, 5-Amino-3′-methoxy-[2,2′]bi-pyridinyl-6-carboxylic acid (3-amino-3,4,5,6-tetrahydro-2H-[1,4′]bipyridinyl-3′-yl)-amide] | 1000 to 10000 nM | < 1000 nM | < 1000 nM |
| CS(=O)(=O)c1ccc(-c2ccc(N)c(C(=O)Nc3cnccc3N3CCC[C@H](N)C3)n2)nc1 [Example 698, 5-Amino-5′-methanesulfonyl-[2,2′]bipyridinyl-6-carboxylic acid (3-amino-3,4,5,6-tetra-hydro-2H-[1,4′]bipyridinyl-3′-yl)-amide] | < 1000 nM | < 1000 nM | < 1000 nM |
| Cc1cc(Cl)cnc1-c1ccc(N)c(C(=O)Nc2cnccc2N2CCC[C@H](N)C2)n1 [Example 701, 5-Amino-5′-chloro-3′-methyl-[2,2′]bipyridinyl-6-carboxylic acid (3-amino-3,4,5,6-tetra-hydro-2H-[1,4′]bipyridinyl-3′-yl)-amide] | < 1000 nM | < 1000 nM | < 1000 nM |
| NC(=O)c1ccnc(-c2ccc(N)c(C(=O)Nc3cnccc3N3CCC[C@H](N)C3)n2)c1 [Example 704, 5′-Amino-[2,2′]bipyridinyl-4,6′-dicarboxylic acid 4-amide 6′-[(3-amino-3,4,5,6-tetrahydro-2H-[1,4′]bipyridinyl-3′-yl)-amide]] | < 1000 nM | < 1000 nM | < 1000 nM |
| COc1nc(-c2ccc(N)c(C(=O)Nc3cnccc3N3CCC[C@H](N)C3)n2)ccc1N [Example 705, 5,5′-Diamino-6′-methoxy-[2,2′]bipyridinyl-6-carboxylic acid (3-amino-3,4,5,6-tetra-hydro-2H-[1,4′]bipyridinyl-3′-yl)-amide] | < 1000 nM | < 1000 nM | < 1000 nM |
| CC(=O)c1cccc(-c2ccc(N)c(C(=O)Nc3cnccc3N3CCC[C@H](N)C3)n2)n1 [Example 706, 6′-Acetyl-5-amino-[2,2′]bi-pyridinyl-6-carboxylic acid (3-amino-3,4,5,6-tetrahydro-2H-[1,4′]bipyridinyl-3′-yl)-amide] | < 1000 nM | < 1000 nM | < 1000 nM |
| Cc1ccc(F)c(-c2ccc(N)c(C(=O)Nc3cnccc3N3CCC[C@H](N)C3)n2)n1 [Example 709, 5-Amino-3′-fluoro-6′-methyl-[2,2′]bipyridinyl-6-carboxylic acid (3-amino-3,4,5,6-tetra-hydro-2H-[1,4′]bipyridinyl-3′-yl)-amide] | < 1000 nM | < 1000 nM | < 1000 nM |
| Nc1ccc(-c2cccc(F)n2)nc1C(=O)Nc1cnccc1N1CCC[C@H](N)C1 [Example 712, 5-Amino-6′-fluoro-[2,2′]bi-pyridinyl-6-carboxylic acid (3-amino-3,4,5,6-tetrahydro-2H-[1,4′]bipyridinyl-3′-yl)-amide] | < 1000 nM | < 1000 nM | < 1000 nM |
| Nc1ccc(-c2ccc(Cl)cn2)nc1C(=O)Nc1cnccc1N1CCC[C@H](N)C1 [Example 713, 5-Amino-5′-chloro-[2,2′]bi-pyridinyl-6-carboxylic acid (3-amino-3,4,5,6-tetrahydro-2H-[1,4′]bipyridinyl-3′-yl)-amide] | < 1000 nM | < 1000 nM | < 1000 nM |
| Nc1ccc(-c2ccc(C(F)(F)F)cn2)nc1C(=O)Nc1cnccc1N1CCC[C@H](N)C1 [Example 714, 5-Amino-5′-trifluoromethyl-[2,2′]bipyridinyl-6-carboxylic acid (3-amino-3,4,5,6-tetra-hydro-2H-[1,4′]bipyridinyl-3′-yl)-amide] | < 1000 nM | < 1000 nM | < 1000 nM |
